In patent publication US20250084063A1 (Incyte Corporation, priority 2023, published 2025):
pIC50: −log10 of the molar value.

Key:
MRGPRX2 [1] = biological target: T1, MRGPRX2 (Homo sapiens, UniProt Q96LB1); assay: MRGPRX2 IP1 HTRF assay; type: cell-based; set-up: host or cells: CHO-K1; conditions: CHO-K1 cells stably expressing human MRGPRX2; IP1 accumulation, agonist Cortistatin 14 1 μM
T1 sequence (Q96LB1 1-330): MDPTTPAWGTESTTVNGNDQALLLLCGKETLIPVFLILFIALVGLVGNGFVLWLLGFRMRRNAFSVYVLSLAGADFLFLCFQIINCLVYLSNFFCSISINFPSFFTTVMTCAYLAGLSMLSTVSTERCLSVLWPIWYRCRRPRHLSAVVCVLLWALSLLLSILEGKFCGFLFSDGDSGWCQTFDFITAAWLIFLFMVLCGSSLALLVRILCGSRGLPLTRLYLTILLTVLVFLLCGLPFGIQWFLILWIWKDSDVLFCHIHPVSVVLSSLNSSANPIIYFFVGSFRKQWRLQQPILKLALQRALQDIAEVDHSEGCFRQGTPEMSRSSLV
Description: Example B: MRGPRX2 IP1 HTRF Assay
This assay measures compound inhibition of myo-Inositol 1 phosphate (IP1) accumulation in CHO-K1 cells. Chinese hamster ovary (CHO-K1) cells stably expressing human MRGPRX2 were purchased from GenScript (Piscataway, NJ).
For the HTRF IP1 determination, an IP-One GqKit (Perkin Elmer Cisbio, Waltham, MA), which includes all reagents and buffers in this protocol, was used. The cells were maintained in culture medium (Ham's F-12K) containing 10% (v/v) FBS, and 200 μg/mL Zeocin. For the assay, the cells were harvested and resuspended in culture medium with 2% FBS and without Zeocin, then were passed through a 40 μm filter. Cells were added at 20000 cells in a 5 μL/well to a 384-well white small volume cell culture plate (Greiner VWR, Radnor, PA) which contained 50 nL/well of test compound serially diluted at a selected concentration range in DMSO. 5 μL/well of prepared 2× Stimulation Buffer2 was then added to plates and was incubated at 37° C. with 5% CO2 for 1 h. 5 μL/well of agonist Cortistatin 14 (Bio-TechneR&D Systems, Minneapolis, MN) in 1× Stimulation Buffer 2, for a 1 μM final concentration, was then added to plates and incubated at 37° C. with 5% CO2 for 1 h. 6 μL/well of 1:20 diluted Detection Reagent Mix (d2 and Cryptate) was added to the plates and incubated for 1 h in the dark. Plates were read on the PHERAstar microplate reader (BMG Labtech Cary, NC) to determine the HTRF ratio of the acceptor and donor emission signals. The IP1 concentrations were calculated from a standard curve following the IP-One GQ kit instructions. Wells with DMSO only and wells with high concentration of reference antagonist were used as controls for normalization. Compound IC50 curves were globally fitted with 3- or 4-parameter Hill equation in a Genedata Screener (Genedata Basel, Switzerland).

MRGPRX2 [2] = biological target: T1, MRGPRX2; assay: MRGPRX2 β-Arrestin assay; type: cell-based; set-up: host or cells: PathHunter CHO-K1; conditions: PathHunter CHO-K1 MRGPRX2 β-Arrestin cell line; agonist Cortistatin 14 0.25 μM
Description: Example C: MRGPRX2 β-Arrestin Assay
This assay measures compound inhibition of β-Arrestin recruitment, which is part of the G protein-independent pathway that results from the ligand-activated GPCR phosphorylation by specific GPCR kinases. The PathHunter CHO-K1 MRPGRX2 B-Arrestin Cell line stably expressing ProLink tagged MRGPRX2 and Enzyme Acceptor Tagged B-Arrestin was purchased from Eurofins DiscoverX, (Fremont, CA).
The cells were maintained in culture medium from the Europhins DiscoverX Cell Culture Kit-107 which includes FBS, hygromycin B and G418. For the assay, the cells were harvested and were resuspended with Cell Plating Reagent 2 (Eurofins DiscoverX). Cells were added 10000 cells in 25 µL/well to a 384-well black cell culture plate (Greiner VWR, Radnor, PA) which contained 125 nL/well of compound at a selected serially diluted concentration range or DMSO. The plate was incubated at 37° C. with 5% CO2 for 1 h. 2 μL/well of agonist Cortistatin 14 was diluted in Protein Dilution Buffer, (Eurofins DiscoverX) for a final concentration of 0.25 μM, was added and the plate was incubated at 37° C. with 5% CO2 for 90 min. 14 μL/well of Detection Reagent Mix (PathHunter Detection Kit, Eurofins DiscoverX) was added to the plates and further incubated for 1 h in the dark. Plates were read on the PHERAstar microplate reader (BMG Labtech Cary, NC) measuring luminescence 0.1 to 1 second per well. Data was normalized using DMSO only wells and wells with high concentration of reference antagonist as controls. Compound IC50 curves were globally fitted with 3- or 4-parameter Hill equation in a Genedata Screener (Genedata Basel, Switzerland).

OC1(C(F)(F)F)CC(CNc2cc(C(F)(F)F)nc3ccc(Cl)cc23)(c2ccccc2)C1 (stereo not drawn) [Example 66, 3-(((6-Chloro-2-(trifluoromethyl)quinolin-4-yl)amino)methyl)-3-phenyl-1-(trifluoromethyl)cyclobutan-1-ol]
pIC50 (MRGPRX2 [1]): 7.00 to 10.00
pIC50 (MRGPRX2 [2]): 7.00 to 10.00

O=C(O)C1CCC(CNc2cc(C(F)(F)F)nc3ccc(Cl)cc23)(c2ccccc2)CC1 (stereo not drawn) [Example 67, 4-(((6-Chloro-2-(trifluoromethyl)quinolin-4-yl)amino)methyl)-4-phenylcyclohexane-1-carboxylic acid]
pIC50 (MRGPRX2 [1]): 7.00 to 10.00
pIC50 (MRGPRX2 [2]): 7.00 to 10.00

[2H]C([2H])([2H])NC(=O)N1CC(CNc2cc(C(F)(F)F)nc3ccc(Cl)cc23)(n2cc(CC#N)cn2)C1 [Example 71, 3-(((6-Chloro-2-(trifluoromethyl)quinolin-4-yl)amino)methyl)-3-(4-(cyanomethyl)-1H-pyrazol-1-yl)-N-(methyl-d3)azetidine-1-carboxamide]
pIC50 (MRGPRX2 [2]): 6.00 to 7.00

Cn1nccc1NC1CC(CNc2cc(C(F)(F)F)nc3ccc(Cl)cc23)(c2ccc(F)cn2)C1 (stereo not drawn) [Example 72, 6-Chloro-N-((1-(5-fluoropyridin-2-yl)-3-((1-methyl-1H-pyrazol-5-yl)amino)cyclobutyl)methyl)-2-(trifluoromethyl)quinolin-4-amine]
pIC50 (MRGPRX2 [2]): 7.00 to 10.00

NS(=O)(=O)NC1CC(CNc2cc(C(F)(F)F)nc3ccc(Cl)cc23)(c2ccccc2)C1 (stereo not drawn) [Example 73, N-((3-Aminosulfonylamino-1-phenylcyclobutyl)methyl)-6-chloro-2-(trifluoromethyl)quinolin-4-amine]
pIC50 (MRGPRX2 [1]): 7.00 to 10.00
pIC50 (MRGPRX2 [2]): 7.00 to 10.00

NC(=O)C1(C(=O)NC2CC(CNc3cc(C(F)(F)F)nc4ccc(Cl)cc34)(c3ccccc3)C2)CC1 (stereo not drawn) [Example 74, N-(3-(((6-Chloro-2-(trifluoromethyl)quinolin-4-yl)amino)methyl)-3-phenylcyclobutyl)cyclopropane-1,1-dicarboxamide]
pIC50 (MRGPRX2 [1]): 7.00 to 10.00
pIC50 (MRGPRX2 [2]): 7.00 to 10.00

CN1CC(C(=O)NC2CC(CNc3cc(C(F)(F)F)nc4ccc(Cl)cc34)(c3ccccc3)C2)C1 (stereo not drawn) [Example 75, N-(3-(((6-Chloro-2-(trifluoromethyl)quinolin-4-yl)amino)methyl)-3-phenylcyclobutyl)-1-methylazetidine-3-carboxamide]
pIC50 (MRGPRX2 [2]): 7.00 to 10.00

CN1CCC(C(=O)NC2CC(CNc3cc(C(F)(F)F)nc4ccc(Cl)cc34)(c3ccccc3)C2)CC1 (stereo not drawn) [Example 76, N-(3-(((6-Chloro-2-(trifluoromethyl)quinolin-4-yl)amino)methyl)-3-phenylcyclobutyl)-1-methylpiperidine-4-carboxamide]
pIC50 (MRGPRX2 [2]): 7.00 to 10.00

O=C(NC1CC(CNc2cc(C(F)(F)F)nc3ccc(Cl)cc23)(c2ccccc2)C1)C(O)C(F)(F)F (stereo not drawn) [Example 77, N-(3-(((6-Chloro-2-(trifluoromethyl)quinolin-4-yl)amino)methyl)-3-phenylcyclobutyl)-3,3,3-trifluoro-2-hydroxypropanamide]
pIC50 (MRGPRX2 [2]): 7.00 to 10.00

O=C(N[C@H]1C[C@H](O)C1)N1CCC(CNc2cc(C(F)(F)F)nc3ccc(Cl)cc23)(c2ccc(F)cc2)CC1 [Example 86, 4-(((6-Chloro-2-(trifluoromethyl)quinolin-4-yl)amino)methyl)-4-(4-fluorophenyl)-N-((1r,3r)-3-hydroxycyclobutyl) piperidine-1-carboxamide]
pIC50 (MRGPRX2 [1]): 7.00 to 10.00
pIC50 (MRGPRX2 [2]): 7.00 to 10.00

O=C(N[C@H]1CC[C@H](O)CC1)N1CCC(CNc2cc(C(F)(F)F)nc3ccc(Cl)cc23)(c2ccc(F)cc2)CC1 [Example 87, 4-(((6-Chloro-2-(trifluoromethyl)quinolin-4-yl)amino)methyl)-4-(4-fluorophenyl)-N-((1r,4r)-4-hydroxycyclohexyl) piperidine-1-carboxamide]
pIC50 (MRGPRX2 [1]): 7.00 to 10.00
pIC50 (MRGPRX2 [2]): 7.00 to 10.00

COCCN1CC(CNc2cc(C(F)(F)F)nc3ccc(Cl)cc23)(c2ccc(F)cc2)C1 [Example 92, 6-Chloro-N-((3-(4-fluorophenyl)-1-(2-methoxyethyl)azetidin-3-yl)methyl)-2-(trifluoromethyl)quinolin-4-amine]
pIC50 (MRGPRX2 [2]): 7.00 to 10.00
